Eight molecules from PubChem BioAssay (NCI) can be followed below.

Among the test systems are SW-620 colon; M14 melanoma; HS 578T breast; COLO 205 colon; SK-OV-3 ovarian; CAKI-1 renal; NCI-H23 lung; EKVX NSCLC; NCI-H522 lung; A498 renal; HCT-116 colon; K-562 leukemia; SF-295 CNS; HOP-62 NSCLC; IGROV1 ovarian; CCRF-CEM leukemia; UO-31 renal; RXF 393 renal.
What all share (assay): NCI-60 cell line screen, 48 h

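In this assay, cells in 96-well plates receive the compound at five concentrations for 48 hours. Endpoints are linearly interpolated between the surrounding concentrations. The concentration for full growth arrest is given as TGI.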

Turning to `Cc1nn(C(=O)Cc2ccccc2)c2c1C(c1ccc([N+](=O)[O-])cc1)SC(N)=N2` (centres undefined), the TGI in the test on SW-620 colon, with M14 melanoma, in the test with HS 578T breast, in the test with COLO 205 colon, in the test with SK-OV-3 ovarian and in the test with CAKI-1 renal was over 100 µM each time. Besides, the TGI with NCI-H23 lung, in the test on EKVX NSCLC, in the test with NCI-H522 lung, in the test on A498 renal, in the test with HCT-116 colon and with K-562 leukemia was over 100 µM throughout. For the same molecule, the TGI with SF-295 CNS, in the test on HOP-62 NSCLC, with IGROV1 ovarian and with CCRF-CEM leukemia was over 100 µM throughout.

For the molecule `CCOC(=O)/C(=C\c1cn(C(C)=O)c2ccccc12)P(C)(=O)OCC` (centres undefined), the TGI with SW-620 colon is over 100 µM; in the test on M14 melanoma, over 100 µM; in the test on COLO 205 colon, over 100 µM; with SK-OV-3 ovarian, 66.1 µM; in the test with CAKI-1 renal it was over 100 µM; in the test on EKVX NSCLC, over 100 µM. Further, the TGI with NCI-H522 lung was 67.2 µM; in the test on A498 renal it was over 100 µM; in the test on HCT-116 colon, over 100 µM; in the test with K-562 leukemia, over 100 µM; with SF-295 CNS it was over 100 µM; with HOP-62 NSCLC, over 100 µM. Moreover, the TGI with UO-31 renal, in the test with IGROV1 ovarian and with CCRF-CEM leukemia was over 100 µM throughout.

`Cc1ccc2nc(CN(CCO)CCO)cc(=O)n2c1`: the TGI in the test with SW-620 colon, in the test with M14 melanoma, with HS 578T breast, in the test with COLO 205 colon, in the test on SK-OV-3 ovarian and in the test with CAKI-1 renal was over 100 µM in each case. Further, the TGI in the test on NCI-H23 lung, in the test on EKVX NSCLC, in the test on NCI-H522 lung, with HCT-116 colon, in the test with K-562 leukemia and in the test on SF-295 CNS was over 100 µM throughout. Further, the TGI in the test on HOP-62 NSCLC, in the test on UO-31 renal, with IGROV1 ovarian and with CCRF-CEM leukemia was over 100 µM in each case.

For `COC(=O)CCC(=O)c1ccc2c(c1)CC1(C2)Cc2ccc(C(=O)CCC(=O)OC)cc2C1`, the TGI in the test on M14 melanoma, with HS 578T breast, in the test on COLO 205 colon, in the test with SK-OV-3 ovarian, in the test on NCI-H23 lung and in the test with EKVX NSCLC was over 100 µM each time. Further, the TGI with NCI-H522 lung, in the test on A498 renal, in the test with HCT-116 colon, with K-562 leukemia, in the test on SF-295 CNS and in the test on HOP-62 NSCLC was over 100 µM throughout. Further, the TGI with UO-31 renal, in the test on RXF 393 renal, with IGROV1 ovarian and with CCRF-CEM leukemia was over 100 µM in each case.

`COc1ccc(/C=C2/SC(=Nc3ccccc3)N(NC(=O)Cc3ccccc3)C2=O)c(OC)c1`: the TGI in the test on SW-620 colon, with M14 melanoma, in the test on HS 578T breast, in the test with COLO 205 colon, in the test on SK-OV-3 ovarian and in the test with NCI-H23 lung was over 100 µM in each case. Moreover, the TGI with EKVX NSCLC, in the test with A498 renal, in the test on HCT-116 colon, with K-562 leukemia, in the test on SF-295 CNS and in the test with HOP-62 NSCLC was over 100 µM in each case. Moreover, the TGI in the test with UO-31 renal, in the test on RXF 393 renal, with IGROV1 ovarian and with CCRF-CEM leukemia was over 100 µM in each case.

As to `[N-]=[N+]=Nc1c(-c2ccccc2)c(=O)n(-c2ccccc2)c2ccccc12`, the TGI in the test with SW-620 colon, in the test with M14 melanoma, in the test on HS 578T breast, in the test on COLO 205 colon, with SK-OV-3 ovarian and in the test on NCI-H23 lung was over 100 µM in each case. Further, the TGI in the test on EKVX NSCLC was 48.8 µM; with NCI-H522 lung it was 97.1 µM; in the test with A498 renal, over 100 µM; with HCT-116 colon it was over 100 µM; in the test on K-562 leukemia, over 100 µM; with SF-295 CNS, over 100 µM. For the same molecule, the TGI in the test on HOP-62 NSCLC, in the test on UO-31 renal, in the test on RXF 393 renal, in the test with IGROV1 ovarian and in the test on CCRF-CEM leukemia was over 100 µM in each case.

As to `OCC(O)COCn1cc(Cn2ncc3c(NCc4ccccc4)ncnc32)nn1` (centres undefined), the TGI is over 100 µM in the test on SW-620 colon; over 100 µM in the test with M14 melanoma; 47.9 µM in the test on HS 578T breast; over 100 µM with COLO 205 colon; over 100 µM in the test on SK-OV-3 ovarian; over 100 µM with CAKI-1 renal. Also, the TGI in the test with NCI-H23 lung is over 100 µM; with EKVX NSCLC it was over 100 µM; with NCI-H522 lung it was 33.4 µM; in the test on A498 renal it was over 100 µM; with HCT-116 colon, over 100 µM; with SF-295 CNS, over 100 µM. Besides, the TGI in the test on HOP-62 NSCLC, in the test with UO-31 renal, in the test on IGROV1 ovarian and in the test with CCRF-CEM leukemia was over 100 µM each time.

For `O=S1(=O)c2ccccc2N2C(c3ccccc3)=NOC2(c2ccccc2)CC1c1ccc(Br)cc1` (centres undefined), the TGI in the test with SW-620 colon, with M14 melanoma, in the test on HS 578T breast, in the test with COLO 205 colon, with SK-OV-3 ovarian and with NCI-H23 lung was over 100 µM each time. Besides, the TGI with EKVX NSCLC, in the test on NCI-H522 lung, in the test with A498 renal, with HCT-116 colon, in the test with K-562 leukemia and in the test on SF-295 CNS was over 100 µM each time. Further, the TGI in the test with HOP-62 NSCLC, with UO-31 renal, with RXF 393 renal, in the test on IGROV1 ovarian and in the test with CCRF-CEM leukemia was over 100 µM in each case.
